Results on 29 compounds are retold here after patent US10703755B2, “Substituted purine derivative” (SUMITOMO DAINIPPON PHARMA CO., LTD., priority 2016, dated 2020).

The target of the test is human TLR7 (Homo sapiens (Human), UniProt Q9NYK1). The test can be described thus: Test for evaluating the inhibition of the activation of human TLR7 (SEAP reporter, TLR7/NF-κB/SEAPorter HEK293 cell). Particulars: R-848 200 nmol/L; for inhibitory effect against TLR7 in the test for evaluating inhibition of the activation of TLR7: SEAP activity, result in words; for IC50: SEAP reporter. The test is classed as cell-based. As to the method: As human TLR7 expressing cell line, HEK293 cell line was bought from IMGENEX Corporation (TLR7/NF-ηB/SEAPorter™ HEK293 cell), which is human embryonic kidney cell line and stably expresses full-length human TLR7 gene and secreted alkaline phosphatase (SEAP) reporter gene under the transcriptional control of an NE-ηB response element. The TLR7/NF-ηB/SEAPorter™ HEK293 cell was cultivated with DMEM containing 10% fetal bovine serum (FBS) and 10 μg/mL blasticidin S at 37° C. in the presence of 5% CO2. The TLR7/NF-ηB/SEAPorter™ HEK293 cell was seeded into 96-well microtiter plate at 5×10^4 cell/90 μL/well, and the place was cultivated at 37° C. in a CO2 incubator overnight.
human TLR7, sequence (Q9NYK1 27-1049): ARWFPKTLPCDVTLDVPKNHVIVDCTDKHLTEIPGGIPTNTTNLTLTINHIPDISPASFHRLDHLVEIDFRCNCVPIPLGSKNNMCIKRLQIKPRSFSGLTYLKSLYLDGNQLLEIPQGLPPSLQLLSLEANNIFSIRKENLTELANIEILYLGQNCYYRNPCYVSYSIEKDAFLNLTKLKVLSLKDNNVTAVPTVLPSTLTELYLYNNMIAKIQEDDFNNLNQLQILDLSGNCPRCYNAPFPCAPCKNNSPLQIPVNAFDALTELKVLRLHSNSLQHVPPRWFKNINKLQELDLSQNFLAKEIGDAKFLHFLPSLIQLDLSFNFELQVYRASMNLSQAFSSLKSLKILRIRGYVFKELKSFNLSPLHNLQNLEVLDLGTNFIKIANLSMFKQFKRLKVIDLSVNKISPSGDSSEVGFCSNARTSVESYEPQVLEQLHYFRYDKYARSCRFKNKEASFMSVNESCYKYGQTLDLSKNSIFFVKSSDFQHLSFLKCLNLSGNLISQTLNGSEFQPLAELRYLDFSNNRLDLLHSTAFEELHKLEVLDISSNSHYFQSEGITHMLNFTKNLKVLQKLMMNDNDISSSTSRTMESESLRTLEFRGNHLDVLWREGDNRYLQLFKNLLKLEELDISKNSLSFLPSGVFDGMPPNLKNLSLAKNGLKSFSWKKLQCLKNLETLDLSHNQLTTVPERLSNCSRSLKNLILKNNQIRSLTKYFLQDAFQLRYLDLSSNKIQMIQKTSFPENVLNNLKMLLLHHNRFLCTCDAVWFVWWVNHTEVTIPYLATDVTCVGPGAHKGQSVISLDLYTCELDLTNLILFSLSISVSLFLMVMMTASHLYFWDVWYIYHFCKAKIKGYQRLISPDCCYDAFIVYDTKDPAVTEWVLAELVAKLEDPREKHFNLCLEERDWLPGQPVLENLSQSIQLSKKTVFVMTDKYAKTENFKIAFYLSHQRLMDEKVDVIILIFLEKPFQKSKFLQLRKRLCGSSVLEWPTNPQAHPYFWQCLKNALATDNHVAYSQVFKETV
Each compound prepared in the Examples was evaluated by Test 1.

Structures are written as SMILES.

In general, IC50 refers to the point on the concentration scale where inhibition reaches its midpoint. Regarding `CCOc1nc(C)c2nc(-c3cncc(F)c3)n(Cc3ccc(CN4C[C@@H]5C[C@H]4CN5)cc3)c2n1` [Example 123, 9-{4-[(1S,4S)-2,5-Diazabicyclo[2.2.1]hept-2-ylmethyl]benzyl}-2-ethoxy-8-(5-fluoropyridin-3-yl)-6-methyl-9H-purine], the “inhibitory effect against TLR7 in the test for evaluating inhibition of the activation of TLR7” value (shortened to “inhibitory effect against TLR7”) is “potent inhibitory effect against TLR7” and it took 0.033 µM to reach half-maximal inhibition (IC50).

On to `CCOc1nc(N)c2nc(-c3cncc(F)c3)n(Cc3ccc(CN4C[C@@H]5C[C@H]4CN5)cc3)c2n1` [Example 124], for which it took 0.22 µM to reach half-maximal inhibition (IC50).

Regarding `COc1nc(C)c2nc(-c3cncc(F)c3)n(Cc3ccc(CN4C[C@@H]5C[C@H]4CN5)cc3)c2n1` [Example 125], the “inhibitory effect against TLR7” value is recorded as “potent inhibitory effect against TLR7” and the IC50 is 0.085 µM.

Compound `CCOc1nc(N)c2nc(-c3cncc(F)c3)n(Cc3ccc(CN4C[C@@H]5C[C@H]4CN5C(C)=O)cc3)c2n1` [Example 126, 1-[(1S,4S)-5-(4-{[6-Amino-2-ethoxy-8-(5-fluoropyridin-3-yl)-9H-purin-9-yl]methyl}benzyl)-2,5-diazabicyclo[2.2.1]hept-2-yl]ethanone] gave an IC50 of 0.15 µM.

On to `CCOc1nc(N)c2nc(-c3cncc(F)c3)n(Cc3ccc(C4CCN(C)CC4)cc3)c2n1` [Example 127, 2-Ethoxy-8-(5-fluoropyridin-3-yl)-9-[4-(1-methylpiperidin-4-yl)benzyl]-9H-purine-6-amine], for which the “inhibitory effect against TLR7” value was “potent inhibitory effect against TLR7” and the IC50 turned out to be 0.053 µM.

For `CCOc1nc(N)c2nc(-c3cncc(F)c3)n(Cc3ccc(CN4C[C@@H]5C[C@H]4CN5CC)cc3)c2n1` [Example 128], the “inhibitory effect against TLR7” value was “potent inhibitory effect against TLR7” and 0.019 µM corresponded to half-maximal inhibition (IC50).

As to `CCOc1nc(N)c2nc(-c3cncc(F)c3)n(Cc3ccc(CN4C[C@@H]5C[C@H]4CN5C4COC4)cc3)c2n1` [Example 129], the “inhibitory effect against TLR7” value is reported as “potent inhibitory effect against TLR7” and the IC50 was 0.071 µM.

`CCOc1nc(N)c2nc(-c3cncc(F)c3)n(Cc3ccc(CN4C[C@@H]5C[C@H]4CN5C4CC4)cc3)c2n1` [Example 130]: the “inhibitory effect against TLR7” value is listed as “potent inhibitory effect against TLR7” and 0.043 µM corresponded to half-maximal inhibition (IC50).

`CCOc1nc(C)c2nc(-c3cncc(F)c3)n(Cc3ccc(CN4C[C@@H]5C[C@H]4CN5CC)cc3)c2n1` [Example 131, 2-ethoxy-9-(4-{[(1S,4S)-5-ethyl-2,5-diazabicyclo[2.2.1]hept-2-yl]methyl}benzyl)-8-(5-fluoropyridin-3-yl)-6-methyl-9H-purine]: the “inhibitory effect against TLR7” value was “potent inhibitory effect against TLR7” and it took 0.007 µM to reach half-maximal inhibition (IC50).

As to `CCN1C[C@@H]2C[C@H]1CN2Cc1ccc(Cn2c(-c3cncc(F)c3)nc3c(C)nc(OC)nc32)cc1` [Example 132, 9-(4-{[(1S,4S)-5-ethyl-2,5-diazabicyclo[2.2.1]hept-2-yl]methyl}benzyl)-8-(5-fluoropyridin-3-yl)-2-methoxy-6-methyl-9H-purine], the “inhibitory effect against TLR7” value is “potent inhibitory effect against TLR7” and 0.019 µM corresponded to half-maximal inhibition (IC50).

Turning to `CCCN1C[C@@H]2C[C@H]1CN2Cc1ccc(Cn2c(-c3cncc(F)c3)nc3c(C)nc(OC)nc32)cc1` [Example 133, 8-(5-fluoropyridin-3-yl)-2-methoxy-6-methyl-9-(4-{[(1S,4S)-5-propyl-2,5-diazabicyclo[2.2.1]hept-2-yl]methyl}benzyl)-9H-purine], the “inhibitory effect against TLR7” value is reported as “potent inhibitory effect against TLR7” and the IC50 came to 0.013 µM.

The compound `CCN1C[C@@H]2C[C@H]1CN2Cc1ccc(Cn2c(-c3cncc(F)c3)nc3c(N)nc(OC)nc32)cc1` [Example 134] returned an IC50 of 0.17 µM.

Turning to `CCOc1nc(N)c2nc(-c3cncc(F)c3)n(Cc3ccc(C4CCN(C5COC5)CC4)cc3)c2n1` [Example 135], the “inhibitory effect against TLR7” value was “potent inhibitory effect against TLR7” and 0.085 µM corresponded to half-maximal inhibition (IC50).

Turning to `CCOc1nc(N)c2nc(-c3cncc(F)c3)n(Cc3ccc4c(c3)CN(C)C4)c2n1` [Example 137], the half-maximal inhibitory concentration (IC50) was 0.84 µM.

Take `CCOc1nc(C)c2nc(-c3cncc(F)c3)n(Cc3ccc(C4CCN(C)C4)cc3)c2n1` (centres unmarked) [Example 138]: the “inhibitory effect against TLR7” value is on record as “potent inhibitory effect against TLR7” and it took 0.049 µM to reach half-maximal inhibition (IC50).

Regarding `CCOc1nc(N)c2nc(-c3cncc(F)c3)n(Cc3ccc(COCCN(C)C)cc3)c2n1` [Example 140, 9-(4-{[2-(Dimethylamino)ethoxy]methyl}benzyl)-2-ethoxy-8-(5-fluoropyridin-3-yl)-9H-purine-6-amine], the IC50 turned out to be 0.12 µM.

For the compound `CCCCOc1nc(C)c2nc(-c3cncc(F)c3)n(Cc3ccccc3)c2n1` [Example 141, 9-Benzyl-2-butoxy-8-(5-fluoropyridin-3-yl)-6-methyl-9H-purine], 3.3 µM corresponded to half-maximal inhibition (IC50).

As to `CCCCOc1nc(C)c2nc(-c3cncc(OC)c3)n(Cc3ccccc3)c2n1` [Example 142], half-maximal inhibition (IC50) was put at 6.6 µM.

The compound `CCOc1nc(N)c2nc(-c3cncc(F)c3)n(Cc3ccc(C(=O)N4CCN(C)CC4)cc3)c2n1` [Example 143, (4-{[6-Amino-2-ethoxy-8-(5-fluoropyridin-3-yl)-9H-purin-9-yl]methyl}phenyl) (4-methylpiperazin-1-yl)methanone] yielded an IC50 of 1.57 µM.

As to `CCOc1nc(N)c2nc(-c3cncc(F)c3)n(Cc3ccc(C(=O)N4CCC(C)CC4)cc3)c2n1` [Example 144], the IC50 was 2.6 µM.

With `CCOc1nc(N)c2nc(-c3cncc(F)c3)n(Cc3ccc(C(=O)NCCN(C)C)cc3)c2n1` [Example 145], the IC50 came to 2.1 µM.

`CCOc1nc(N)c2nc(-c3cncc(F)c3)n(Cc3ccc(C(=O)NCCN4CCCC4)cc3)c2n1` [Example 146] had an IC50 of 1.7 µM.

Consider `CCCCOc1nc(N)c2nc(-c3cncc(F)c3)n(Cc3cccc(C(=O)N4CCN(C)CC4)c3)c2n1` [Example 147], for which the half-inhibitory concentration (IC50) was found to be 3.5 µM. Compared with the last compound, the IC50 is about 2.1-fold higher.

Regarding `CCOc1nc(N)c2nc(-c3cncc(F)c3)n(Cc3ccc(C4CCN(C(=O)CN(C)C)CC4)cc3)c2n1` [Example 148, 1-[4-(4-{[6-Amino-2-ethoxy-8-(5-fluoropyridin-3-yl)-9H-purin-9-yl]methyl}phenyl)piperidin-1-yl]-2-(dimethylamino)ethanone], the “inhibitory effect against TLR7” value is given as “potent inhibitory effect against TLR7” and half-maximal inhibition (IC50) required 0.016 µM.

Regarding `COc1nc(N)c2nc(-c3cncc(F)c3)n(Cc3ccc(CN(C)C)cc3)c2n1` [Example 150], the concentration for half-maximal inhibition (IC50) is 0.5 µM.

The compound `CN(C)Cc1ccc(Cn2c(-c3cncc(F)c3)nc3c(N)nc(OC4CCOCC4)nc32)cc1` [Example 151] registered an IC50 of 16.6 µM.

As for `CN(C)Cc1ccc(Cn2c(-c3cncc(F)c3)nc3c(N)nc(OCC4CCOCC4)nc32)cc1` [Example 152], the IC50 is 2.9 µM.

For the compound `CN(C)Cc1ccc(Cn2c(-c3cncc(F)c3)nc3c(N)nc(N4CCC4)nc32)cc1` [Example 153], the IC50 came out at 5.8 µM.

As to `CCCCNc1nc(N)c2nc(-c3cncc(F)c3)n(Cc3ccc(CN(C)C)cc3)c2n1` [Example 154], half-maximal inhibition (IC50) required 13.6 µM.
